The source of these data is US20250154145A1, “OXER1 ANTAGONISTS AND USES THEREOF” (Fairhaven Pharmaceuticals Ins., priority 2021, published 2025).

Assay [1] has as its target T1, Human OXER1 (Homo sapiens, UniProt Q8TDS5).
T1 construct: host or cells: HEK293 cells, transient transfection
The assay can be described thus: BRET early endosome trafficking assay (OXER1-Rluc8 / rGFP-FYVE in HEK293 cells). Particulars: HEK293 cells transfected with OXER1-Rluc8 and rGFP-FYVE, 5-oxo-ETE agonist. The format is cell-based. An excerpt:
Background—The following assay can be used for determination of OXER1 activation in living HEK293 cells. Signalling functions of GPCRs are tightly regulated by endocytosis, the targeting of receptors to endosomes and their sorting to lysosomes or recycling to the plasma membrane. The early endosomes (EEs) trafficking assay (Namkung et al., Monitoring G protein-coupled receptor and β-arrestin trafficking in live cells using enhanced bystander BRET, Nat Commun 2016, 7: 12178) uses Rluc8-tagged OXER1 and Renilla GFP (rGFP) attached to the FYVE domain from human endofin/zinc finger FYVE domain-containing protein 16, which binds phosphatidylinositol 3-phosphate in EEs. Agonist stimulation of OXER1-Rluc8 leads to trafficking of the receptor to EEs, and ensuing increase of the donor concentration relative to the rGFP-FYVE acceptor anchored in the same cellular compartment, and thus results in an increase in BRET signal.
Plasmids—Human OXER1 VersaClone cDNA was obtained from R&D Systems. Rluc8 (A55T, C124A, S130A, K136R, A143M, M185V, M253L, and S287L variant of theRenilla renformis luciferase) gBlocks gene fragment (Integrated DNA Technologies, IA) was inserted with linker in frame at the C-terminus of OXER1. The FYVE domain from human endofin (residues Q739 to K806) attached in frame at the C terminus of a humanized Renilla GFP (rGFP), were synthesized as gBlocks gene fragments.
Bioluminescence Resonance Energy Transfer (BRET) Measurement—HEK293 cells were transfected with OXER1-Rluc8 and rGFP-FYVE. The following day, transiently transfected cells were seeded in 96-well white clear bottom microplates coated with poly-D-lysine and left in culture for 24 hours. Cells were washed once with Tyrode's buffer (140 mmol/L NaCl, 1 mmol/L CaCl2, 2.7 mmol/L KCl, 0.49 mmol/L MgCl2, 0.37 mmol/L NaH2PO4, 5.6 mmol/L glucose, 12 mmol/L NaHCO3, and 25 mmol/L HEPES, pH 7.5) before performing assays in Tyrode's buffer. Test compounds were incubated with cells for 15 minutes at 37° C. before addition of […] of the OXER1 agonist 5-oxo-6E,8Z,1IZ,14Z-eicosatetraenoic acid (5-oxo-ETE) for 45 minutes at 37° C. The Rluc8 substrate coelenterazine 400A (Prolume, Lakeside, AZ) was added at a final concentration of […] and BRET readings were collected using a Spark or Infinite M1000 microplate reader (Tecan, Morrisville, NC). BRET^2 readings between Rluc8 and rGFP were collected by sequential integration of the signals detected in the 370 to 450 nm (Rluc8) and 510 to 540 nm (rGFP) windows. The BRET signal was calculated as the ratio of light emitted by acceptor (rGFP) over the light emitted by donor (Rluc8). Ligand-promoted net BRET values were calculated by subtracting vehicle-induced net BRET from ligand-induced net BRET.
A general note: In BRET a luciferase serves as donor, and the signal depends on an acceptor being close.

Assay [2] has as its system neutrophils. The assay can be described thus: Neutrophil calcium flux assay (5-OXO-ETE-stimulated, Indo-1 fluorescence). It counts as cell-based. Particulars: Neutrophil, 5-OXO-ETE-stimulated calcium flux. A digest of the protocol: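 Indo-1-loaded neutrophils (5×10^6 cells/ml, 30 min at 37 °C) in HBSS with Ca/Mg and HEPES, pre-incubated 5 min with antagonist or buffer. Stimulated with 5-OXO-ETE added at 200 nM (4× stock); fluorescence (ex 331/em 410 nm) read every 5 s for 30 cycles, expressed as net fluorescence.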
In general terms: Calcium flux is commonly read through the fluorescence of an indicator in the cells.

T1 sequence (Q8TDS5 whole entry): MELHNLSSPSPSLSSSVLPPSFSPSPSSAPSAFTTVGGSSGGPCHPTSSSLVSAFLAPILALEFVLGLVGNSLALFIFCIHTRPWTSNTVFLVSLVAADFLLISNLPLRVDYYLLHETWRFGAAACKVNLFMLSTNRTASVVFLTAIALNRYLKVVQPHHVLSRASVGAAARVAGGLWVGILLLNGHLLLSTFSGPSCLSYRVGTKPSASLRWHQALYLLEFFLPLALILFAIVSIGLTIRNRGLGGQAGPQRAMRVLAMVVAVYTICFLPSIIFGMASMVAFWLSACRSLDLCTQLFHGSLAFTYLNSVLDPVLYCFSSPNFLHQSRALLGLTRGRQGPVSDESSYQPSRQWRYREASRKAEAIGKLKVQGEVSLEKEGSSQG

As to `C[C@H](CC(=O)O)CC(=O)c1c(CCCCCC(O)c2cccc(Cl)c2)n(C)c2ncc(Cl)cc12` (some centres unmarked) [Compound I-85], the IC50 in assay [1] and in assay [2] was less than 100 nM throughout.
On to `C[C@@H](CC(=O)O)CC(=O)c1c([C@@H](O)CCCCCc2cccc(Cl)c2)n(C)c2ccc(Cl)cc12` [Compound I-4], for which the IC50 in assay [1] and in assay [2] was more than 300 nM in each case.
On to `C[C@H](CC(=O)O)CC(=O)c1c(CCCCCCc2cccc(F)c2)n(C)c2ccc(Cl)cc12` [Compound I-9], for which the concentration for half-maximal inhibition (IC50) in assay [1] and in assay [2] was less than 100 nM in each case.
Consider `C[C@H](CC(=O)O)CC(=O)c1c(CCCCCOc2cccc(Cl)c2)n(C)c2ccc(Cl)cc12` [Compound I-59], for which the IC50 in assay [1] is 100 to 300 nM; in assay [2] it was less than 100 nM.
Taken in the same sequence, the figures for `C[C@H](CC(=O)O)CC(=O)c1c(CCCCOCc2cccc(Cl)c2)n(C)c2ncc(C(F)(F)F)cc12` [Compound I-182] were 100 to 300 nM and less than 100 nM.
Taken in the same sequence, the figures for `C[C@H](CC(=O)NS(C)(=O)=O)CC(=O)c1c(CCCCCCc2cccc(Cl)c2)n(C)c2ccc(Cl)cc12` [Compound I-14] were 100 to 300 nM and 100 to 300 nM.
Taken in the same sequence, the figures for `C[C@H](CC(=O)O)CC(=O)c1c(CCCCCCc2cccc(Cl)c2)oc2ccc(Cl)cc12` [Compound I-21] were 100 to 300 nM and more than 300 nM.
As to `CCCCCCc1c(C(=O)C[C@H](C)CC(=O)O)c2cc(Cl)ccc2n1C` [Compound I-11], the IC50 in assay [1] and in assay [2] was 100 to 300 nM each time.
`C[C@H](CC(=O)O)CC(=O)c1c([C@@H](O)CCCCCc2cccc(Cl)c2)n(C)c2ccc(Cl)cc12` [Compound I-3]: the values for the IC50 in assay [1] and in assay [2] were less than 100 nM and more than 300 nM, respectively.
Regarding `CC(C)C#CCCCCCCc1c(C(=O)C[C@H](C)CC(=O)O)c2cc(Cl)ccc2n1C` [Compound I-68], the IC50 in assay [1] and in assay [2] was less than 100 nM each time.
As for `C[C@H](CC(=O)O)CC(=O)c1c(CCCCCC(O)c2cccc(Cl)c2)n(C)c2ccc(Cl)cc12` (some centres unmarked) [Compound I-44], the IC50 in assay [1] and in assay [2] was less than 100 nM in each case.
Consider `CONC(=O)C[C@@H](C)CC(=O)c1c(CCCCCCc2cccc(Cl)c2)n(C)c2ccc(Cl)cc12` [Compound I-19], for which the concentration for half-maximal inhibition (IC50) in assay [1] and in assay [2] was more than 300 nM each time.
Turning to `C[C@H](CC(=O)O)CC(=O)n1c(CCCCCCc2cccc(Cl)c2)cc2ccc(Cl)cc21` [Compound I-39], the IC50 in assay [1] was 100 to 300 nM; in assay [2], more than 300 nM.
Taken in the same sequence, the figures for `C[C@H](CC(=O)O)CC(=O)c1c(CCCCOCc2ccccc2)n(C)c2ncc(C#N)cc12` [Compound I-105] were 100 to 300 nM and less than 100 nM.
Taken in the same sequence, the figures for `C[C@H](CC(=O)O)CC(=O)c1c(CCCCCCc2ccc(O)c(Cl)c2)n(C)c2ccc(Cl)cc12` [Compound I-48] were less than 100 nM and less than 100 nM.
Taken in the same sequence, the figures for `C[C@@H](CC(=O)c1c(CCCCCCc2cccc(Cl)c2)n(C)c2ccc(Cl)cc12)Cc1nnn[nH]1` [Compound I-13] were less than 100 nM and less than 100 nM.
For `CC(C)CCOCc1c(C(=O)C[C@H](C)CC(=O)O)c2cc(Cl)ccc2n1C` [Compound I-73], the IC50 in assay [1] and in assay [2] was more than 300 nM throughout.
Consider `C[C@H](CC(=O)O)CC(=O)c1c(CCCCCCc2ccccc2)n(C)c2ccc(Cl)cc12` [Compound I-7], for which the IC50 in assay [1] and in assay [2] was less than 100 nM each time.
Consider `CONC(=O)C[C@H](C)CC(=O)c1c(CCCCCCc2cccc(Cl)c2)n(C)c2ccc(Cl)cc12` [Compound I-20], for which the IC50 in assay [1] is more than 300 nM; in assay [2], 100 to 300 nM.
Taken in the same sequence, the figures for `C[C@@H](CC(=O)O)CC(=O)c1c(CCCCCCc2cccc(Cl)c2)oc2ccc(Cl)cc12` [Compound I-22] were 100 to 300 nM and more than 300 nM.
The matching figures for `C[C@@H](CC(=O)O)CC(=O)c1c([C@H](O)CCCCCc2cccc(Cl)c2)n(C)c2ccc(Cl)cc12` [Compound I-6]: more than 300 nM and more than 300 nM.
The matching figures for `CC(CC(=O)O)CC(=O)c1c(CCCCOCc2cccc(Cl)c2)n(C)c2ccc(C(F)(F)F)cc12` (centres unmarked) [Compound I-185]: 100 to 300 nM and less than 100 nM.
In the case of `C[C@H](CC(=O)O)CC(=O)c1c(CCCCCCc2cccc(Cl)c2)n(C)c2ccc(Cl)cc12` [Compound I-2], the IC50 in assay [1] and in assay [2] was less than 100 nM throughout.
For `C[C@@H](CC(=O)O)CC(=O)c1c(CCCCCCc2cccc(Cl)c2)n(C)c2ccc(Cl)cc12` [Compound I-1], the IC50 is 100 to 300 nM in assay [1] and more than 300 nM in assay [2].
The matching figures for `C[C@H](CC(=O)O)CC(=O)c1c(CCCCCCc2ccc(O)cc2)n(C)c2ccc(Cl)cc12` [Compound I-10]: less than 100 nM and less than 100 nM.
As for `CC(CC(=O)O)CC(=O)c1c(CCCCOCc2ccccc2)n(C)c2ncc(C#N)cc12` (centres unmarked) [Compound I-104], the IC50 in assay [1] is 100 to 300 nM; in assay [2], less than 100 nM.
Taken in the same sequence, the figures for `C[C@H](CC(=O)O)CC(=O)c1c(CCCCCC(=O)c2cccc(Cl)c2)n(C)c2ccc(Cl)cc12` [Compound I-45] were 100 to 300 nM and 100 to 300 nM.
Consider `C[C@H](CC(=O)O)CC(=O)c1c(CCCCCCc2cccc(Cl)c2)n(C)c2ccc(C#N)cc12` [Compound I-98], for which the IC50 in assay [1] and in assay [2] was less than 100 nM each time.
Consider `[2H]C([2H])([2H])n1c(CCCCCCc2cccc(Cl)c2)c(C(=O)C[C@H](C)CC(=O)O)c2cc(Cl)ccc21` [Compound I-40], for which the IC50 in assay [1] and in assay [2] was less than 100 nM throughout.
As for `C[C@H](CC(=O)O)CC(=O)c1c(CCCCCC(F)c2cccc(Cl)c2)n(C)c2ccc(Cl)cc12` (some centres unmarked) [Compound I-47], the IC50 in assay [1] and in assay [2] was less than 100 nM in each case.
`C[C@H](CC(=O)O)CC(=O)c1c(CCCCOCc2cccc(Cl)c2)n(C)c2ncc(Cl)cc12` [Compound I-83]: the IC50 in assay [1] is 100 to 300 nM; in assay [2], less than 100 nM.
Taken in the same sequence, the figures for `C[C@H](CC(=O)NO)CC(=O)c1c(CCCCCCc2cccc(Cl)c2)n(C)c2ccc(Cl)cc12` [Compound I-17] were more than 300 nM and more than 300 nM.
Taken in the same sequence, the figures for `C[C@H](CC(=O)O)CC(=O)c1c([C@H](O)CCCCCc2cccc(Cl)c2)n(C)c2ccc(Cl)cc12` [Compound I-5] were more than 300 nM and more than 300 nM.
As for `C[C@H](CC(=O)O)CC(=O)c1c(CCCCOCc2cccc(Cl)c2)n(C)c2ccc(Cl)cc12` [Compound I-60], the IC50 is 100 to 300 nM in assay [1] and less than 100 nM in assay [2].
On to `C[C@H](CC(=O)O)CC(=O)c1c(CCCCOCc2cccc(Cl)c2)n(C)c2ccc(C#N)cc12` [Compound I-180], for which the IC50 in assay [1] and in assay [2] was less than 100 nM each time.
Take `C[C@H](CC(=O)O)CC(=O)c1c(CCCCCCc2cccc(Cl)c2)sc2ccc(Cl)cc12` [Compound I-23]: the IC50 in assay [1] is less than 100 nM; in assay [2] it was 100 to 300 nM.
The matching figures for `C[C@@H](CC(=O)O)CC(=O)c1c(CCCCCCc2ccccc2)n(C)c2ccc(Cl)cc12` [Compound I-8]: more than 300 nM and more than 300 nM.
Consider `C[C@H](CC(=O)O)CC(=O)c1c(CCOCC#Cc2ccc(F)nc2)n(C)c2ncc(Cl)cc12` [Compound I-229], for which the 50% inhibitory concentration (IC50) in assay [2] fell in the range of 100 to 300 nM.
Still for that read-out and setting: the value for `CC(CC(=O)O)CC(=O)c1c(CCCCOCCc2ccccc2)n(C)c2ncc(C#N)cc12` (centres unmarked) [Compound I-424] was more than 300 nM; that for `C[C@H](CC(=O)O)CC(=O)c1c(CCCCOCc2ccccc2)n(C)c2ncccc12` [Compound I-101] was more than 300 nM.

Broadly, the IC50 is the concentration needed to halve the response being measured.
